In patent publication US20220378706A1, “PHARMACEUTICAL COMPOSITION COMPRISING PDE9 INHIBITOR” (Eisai R&D Management Co., Ltd., priority 2017, published 2022):

Assays:
[1] = tested on: scopolamine-induced memory impairment in rats; assay: Scopolamine-induced memory impairment in rat novel object recognition test; format: in vivo; settings: scopolamine 0.7 mg/kg i.p., mean ± SEM
From the text: (Effects of Compound a Monomaleate Salt on Scopolamine-Induced Memory Impairment in Rat Novel Object Recognition Test)
The effects of orally administered Compound A monomaleate salt on scopolamine-induced memory impairment in a novel object recognition test in rats was examined.
Six-week-old male Long-Evans rats (Institute for Animal Reproduction) were used in this study. Before test day, rats were placed in each experimental apparatus once a day, on two consecutive days to habituate rats to the test chamber. […]
Following a 2-hour […] interval, a retention trial (T2) was conducted. […] Animal performance in T1 and T2 was recorded with a digital video camera, and the amount of time spent exploring each object was measured by manual stopwatches. […]
In novel object recognition test, the following novel object exploration ratio in T2 is considered as amnesic indexes reflecting the discrimination between the familiar and novel objects. These indexes are calculated according to the following formulas: […]
Data are expressed as the mean±SEM. The difference between the non-scopolamine treated control and scopolamine treated control groups were analyzed using unpaired t test. The effects of Compound A monomaleate salt on novel object exploration ratio in T2 was analyzed by one-way analysis of variance (ANOVA) followed by the Dunnett multiple comparison test. […]

CSF cGMP = assay: Single dose clinical study Part B: CSF cGMP pharmacodynamics; format: in vivo, human; settings: for CSF cGMP Amax Mean (SD) / CSF cGMP TAmax Median / CSF cGMP ΔAUAC(0-30 h) Mean (SD): healthy adults Part B, fasted
Method: After the Screening Period, subjects returned to the clinic on […] for Baseline procedures. […] Serial CSF sampling via the lumbar catheter commenced on Day 1, after an overnight fast. CSF samples were collected on Day 1 over a period of 3 hours predose. Subjects were then administered study drug, and serial CSF sampling for 30 hours postdose was performed to determine CSF cGMP and CSF Compound A concentrations. Blood samples for plasma Compound A PK were collected at the same time points as CSF sampling. Safety evaluations were also performed.
Serial CSF samples were collected from the lumbar catheter for analysis of concentrations of cyclic […] monophosphate (cGMP) at −3, −2, −1 hours, predose (0 hour), and postdose at 1, 2, 3, 4, 5, 6, 8, 10, 12, 14, 16, 18, 24, and 30 hours.
Plasma, urine and CSF concentrations of Compound A were measured using validated liquid chromatography mass spectrometry/mass spectrometry (LC MS/MS) assay methods. CSF concentrations of cGMP were measured using a validated LC-MS/MS assay method.
The primary PD measure was CSF cGMP. The following PD parameters were reported for CSF cGMP:
Plasma Compound A concentrations pooled from all cohorts of the study were subjected to population PK analysis using nonlinear mixed effects modelling. The effect of covariates, such as baseline demographics/characteristics (eg, body weight, age, gender, ethnicity, etc) on the PK of Compound A were explored. The individual posterior estimates of PK parameters were then used to generate individual PK profiles of Compound A, which were used in subsequent PK/PD analysis of the percent change from baseline in CSF cGMP concentrations.

[2] = High precision QTcF analysis using Holter ECG recording; format: in vivo, human; settings: at the Cmax at the highest doses of 800 to 1200 mg, healthy subjects
Method: In addition, high precision QTcF analysis using Holter ECG recording was conducted in Parts A, C, and D during Day −1 and Day 1, to allow more rigorous assessments of possible changes in QTcF intervals. A central ECG laboratory was used to extract ECG recordings from the Holter device.

[3] = tested on: cGMP in the cerebrospinal fluid; assay: CSF cGMP elevation in rats; format: in vivo; settings: rat, scopolamine
Method: cGMP in the cerebrospinal fluid (hereinafter referred to as “CSF cGMP”) elevation in each sample was measured according to the method described in WO2013/051639.

What does the source list for `COc1ncc(C)c(-c2ccc3c(c2)[nH]c(=O)c2cnn([C@H]4CCOC4)c23)c1C` [Compound A, (S)-7-(2-methoxy-3,5-dimethylpyridin-4-yl)-1-(tetrahydrofuran-3-yl)-1H-pyrazolo[4,3-c]quin olin-4(5H)-one]?
Novel object exploration ratio in T2 ([1]; 3.3 mg/kg oral): 68.5 ± 2.0 %; Novel object exploration ratio in T2 ([1]; 10 mg/kg oral): 68.5 ± 1.6 %; sustained CSF cGMP increase from baseline predicted from PK/PD modeling (CSF cGMP; 100 mg administered to steady state): approximately 200%; CSF cGMP Amax Mean (SD) (CSF cGMP; single oral 50 mg): 367 (92.6) %; CSF cGMP TAmax Median (CSF cGMP; single oral 50 mg): 7.87 h; CSF cGMP ΔAUAC(0-30 h) Mean (SD) (CSF cGMP; single oral 50 mg): 117 (51.7) %; CSF cGMP Amax Mean (SD) (CSF cGMP; single oral 75 mg): 461 (86.3) %; CSF cGMP TAmax Median (CSF cGMP; single oral 75 mg): 5.87 h; CSF cGMP ΔAUAC(0-30 h) Mean (SD) (CSF cGMP; single oral 75 mg): 166 (9.61) %; CSF cGMP Amax Mean (SD) (CSF cGMP; single oral 100 mg): 293 (67.8) %; CSF cGMP TAmax Median (CSF cGMP; single oral 100 mg): 5.87 h; CSF cGMP ΔAUAC(0-30 h) Mean (SD) (CSF cGMP; single oral 100 mg): 87.0 (33.9) %; CSF cGMP Amax Mean (SD) (CSF cGMP; single oral 200 mg): 424 (127) %; CSF cGMP TAmax Median (CSF cGMP; single oral 200 mg): 5.37 h; CSF cGMP ΔAUAC(0-30 h) Mean (SD) (CSF cGMP; single oral 200 mg): 176 (89.5) %; CSF cGMP Amax Mean (SD) (CSF cGMP; single oral 400 mg): 420 (123) %; CSF cGMP TAmax Median (CSF cGMP; single oral 400 mg): 12.9 h; CSF cGMP ΔAUAC(0-30 h) Mean (SD) (CSF cGMP; single oral 400 mg): 214 (82.3) %; upper 90% CI of the ΔΔQTcF [2]: less than 10 ms; % CSF cGMP increase from vehicle control ([3]; 3.3 mg/kg oral): (90) %; CSF cGMP conc. ([3]; 3.3 mg/kg oral): 3.694 ± 0.65 nM; % CSF cGMP increase from vehicle control ([3]; 10 mg/kg oral): (152) %; CSF cGMP conc. ([3]; 10 mg/kg oral): 4.889 ± 0.538 nM
